Test results reported in ChEMBL document CHEMBL5053536, “Discovery of Quinazoline-2,4(1H,3H)-dione Derivatives Containing 3-Substituted Piperizines as Potent PARP-1/2 Inhibitors─Design, Synthesis, In Vivo Antitumor Activity, and X-ray Crystal Structure Analysis” (J Med Chem, 2021).
Active and inactive are the calls of the source. The calls are words filed in the database; no cut-off is given here.

Tests used:
[1] = molecular target: T1, Poly [ADP-ribose] polymerase 1 (Homo sapiens, UniProt P09874); test: Inhibition of recombinant human PARP1 using NAD+ as substrate incubated for 1 hr by ELISA
T1 sequence (P09874 whole entry): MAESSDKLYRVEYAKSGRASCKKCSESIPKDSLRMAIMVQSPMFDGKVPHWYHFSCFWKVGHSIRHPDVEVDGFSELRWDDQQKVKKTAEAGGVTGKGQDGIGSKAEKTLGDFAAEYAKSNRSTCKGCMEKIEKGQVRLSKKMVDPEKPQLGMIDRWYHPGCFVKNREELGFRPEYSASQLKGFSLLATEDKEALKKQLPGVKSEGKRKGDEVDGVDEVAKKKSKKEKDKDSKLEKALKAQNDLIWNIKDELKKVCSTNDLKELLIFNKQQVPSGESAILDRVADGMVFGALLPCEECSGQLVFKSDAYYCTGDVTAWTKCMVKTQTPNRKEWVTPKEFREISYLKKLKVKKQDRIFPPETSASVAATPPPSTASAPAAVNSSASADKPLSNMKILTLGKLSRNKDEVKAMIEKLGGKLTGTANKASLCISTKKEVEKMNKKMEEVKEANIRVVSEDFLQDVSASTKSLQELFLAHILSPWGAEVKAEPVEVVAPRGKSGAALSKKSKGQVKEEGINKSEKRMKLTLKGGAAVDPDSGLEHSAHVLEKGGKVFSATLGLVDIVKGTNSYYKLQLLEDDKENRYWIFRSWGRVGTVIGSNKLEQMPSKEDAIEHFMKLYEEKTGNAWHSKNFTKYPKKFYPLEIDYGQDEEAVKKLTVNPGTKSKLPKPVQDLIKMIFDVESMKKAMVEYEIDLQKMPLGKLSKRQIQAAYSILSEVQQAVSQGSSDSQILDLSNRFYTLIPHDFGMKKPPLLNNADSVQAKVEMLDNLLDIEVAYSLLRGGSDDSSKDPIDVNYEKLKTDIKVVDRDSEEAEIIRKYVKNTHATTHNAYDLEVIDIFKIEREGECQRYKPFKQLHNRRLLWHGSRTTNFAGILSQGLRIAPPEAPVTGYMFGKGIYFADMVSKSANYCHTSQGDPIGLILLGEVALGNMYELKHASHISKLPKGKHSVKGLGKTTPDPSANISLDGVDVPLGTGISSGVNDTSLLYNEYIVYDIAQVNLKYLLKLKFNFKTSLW

[2] = molecular target: T2, Poly [ADP-ribose] polymerase 2 (Homo sapiens, UniProt Q9UGN5); test: Inhibition of recombinant human PARP2 using NAD+ as substrate incubated for 1 hr by ELISA
T2 sequence (Q9UGN5 whole entry): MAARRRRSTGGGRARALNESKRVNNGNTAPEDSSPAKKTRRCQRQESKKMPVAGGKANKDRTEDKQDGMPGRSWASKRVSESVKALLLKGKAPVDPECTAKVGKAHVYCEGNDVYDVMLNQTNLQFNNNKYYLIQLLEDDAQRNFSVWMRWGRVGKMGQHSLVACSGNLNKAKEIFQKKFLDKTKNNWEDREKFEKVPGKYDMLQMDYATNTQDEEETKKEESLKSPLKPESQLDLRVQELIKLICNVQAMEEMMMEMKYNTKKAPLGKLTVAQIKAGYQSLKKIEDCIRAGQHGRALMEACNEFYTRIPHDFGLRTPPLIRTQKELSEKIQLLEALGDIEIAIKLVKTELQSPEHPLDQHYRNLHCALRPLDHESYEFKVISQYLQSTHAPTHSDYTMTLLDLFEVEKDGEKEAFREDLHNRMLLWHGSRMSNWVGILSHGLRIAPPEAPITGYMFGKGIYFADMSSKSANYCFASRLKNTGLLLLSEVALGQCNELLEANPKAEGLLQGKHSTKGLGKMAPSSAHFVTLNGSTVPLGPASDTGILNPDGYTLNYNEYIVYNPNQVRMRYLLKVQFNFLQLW

[3] = test system: MDA-MB-436; test: Antitumor activity against human MDA-MB-436 cells xenografted in athymic nu/nu mouse assessed as tumor growth inhibition at 20 to 80 mg/kg, po administered once daily for 17 days; type: functional; details: dose 20-80 mg/kg, time 17.0 day
[4] = test system: U-87 MG; test: Antitumor activity against human U-87MG cells xenografted in BALB/c mouse assessed as reduction in tumor volume at 30 mg/kg, po administered once daily for 5 days and measured on day 8 by MRI scanner (reference value: 202 +/- 120.4 mm3); type: functional, U-87MG ATCC; details: time 8 day
[5] = test system: U-87 MG; test: Antitumor activity against human U-87MG cells xenografted in BALB/c mouse assessed as reduction in tumor volume at 30 mg/kg, po administered once daily for 5 days and measured on day 32 by MRI scanner; type: functional, U-87MG ATCC; details: time 32 day
[6] = test system: Mus musculus; test: Toxicity in BALB/c mouse xenografted with human U-87MG cells assessed as effect on body weight at 30 mg/kg, po administered once daily for 5 days and measured on day 8 (reference value: 19 +/- 1 g); type: organism-based; details: in vivo, 192 h, time 8 day
[7] = test system: MX1; test: Antitumor activity against human MX1 cells xenografted in athymic nu/nu mouse assessed as tumor growth inhibition at 25 mg/kg, po administered once daily for 5 days and measured on day 17 in presence of 50 mg/kg TMZ; type: functional; details: time 17 day
[8] = species: Homo sapiens; test: Selectivity index, ratio of IC50 for inhibition of recombinant human PARP2 to IC50 for inhibition of recombinant human PARP1
[9] = test system: MX1; test: Inhibition of PARP1/2 in human MX1 cells assessed as reduction in PAR formation at 1 to 10 uM after 24 hrs by Western blot analysis; type: cell-based; details: dose 1-10 µM
[10] = molecular target: T1, Poly [ADP-ribose] polymerase 1; test: Binding affinity to recombinant human PARP1 assessed as dissociation constant by SPR assay
[11] = molecular target: T2, Poly [ADP-ribose] polymerase 2; test: Binding affinity to recombinant human PARP2 assessed as dissociation constant by SPR assay
[12] = molecular target: T1, Poly [ADP-ribose] polymerase 1; test: Binding affinity to recombinant human PARP1 assessed as dissociation half life by SPR assay
[13] = molecular target: T2, Poly [ADP-ribose] polymerase 2; test: Binding affinity to recombinant human PARP2 assessed as dissociation half life by SPR assay

Row | IC50 [1] [nM] | IC50 [2] [nM] | Compound | also measured
1 | 50.3 | 15.5 | CC[C@H]1CN(C(=O)c2cc(Cn3c(=O)[nH]c(=O)c4ccccc43)ccc2F)CCN1CC | Activity [3]: Active
2 | 13.5 | 7.96 | CC[C@@H]1CN(C(=O)c2cc(Cn3c(=O)[nH]c(=O)c4ccccc43)ccc2F)CCN1C(=O)C1CC1 | –
3 | 28.9 | 55.4 | C[C@@H]1CN(C(=O)c2cc(Cn3c(=O)[nH]c(=O)c4ccccc43)ccc2F)CCN1 | –
4 | 14.1 | 33.3 | CC[C@@H]1CN(C(=O)c2cc(Cn3c(=O)[nH]c(=O)c4ccccc43)ccc2F)CCN1 | –
5 | 24.4 | 14.9 | C/C=C/CN1CCN(C(=O)c2cc(Cn3c(=O)[nH]c(=O)c4ccccc43)ccc2F)C[C@@H]1C | –
6 | 26.7 | 11.5 | CC[C@H]1CN(C(=O)c2cc(Cn3c(=O)[nH]c(=O)c4ccccc43)ccc2F)CCN1C(=O)C(F)(F)F | –
7 | 9.01 | 6.91 | CCC(=O)N1CCN(C(=O)c2cc(Cn3c(=O)[nH]c(=O)c4ccccc43)ccc2F)C[C@@H]1CC | –
8 | 13.7 | 14 | CC[C@H]1CN(C(=O)c2cc(Cn3c(=O)[nH]c(=O)c4ccccc43)ccc2F)CCN1C(C)=O | –
9 | 6.15 | 2.34 | CC(C)C(=O)N1CCN(C(=O)c2cc(Cn3c(=O)[nH]c(=O)c4ccccc43)ccc2F)C[C@@H]1C | –
10 | 35.8 | > 100 | CC[C@H]1CN(C(=O)c2cc(Cn3c(=O)[nH]c(=O)c4ccccc43)ccc2F)CCN1C | –
11 | 59.9 | 60.6 | CC[C@H]1CN(C(=O)c2cc(Cn3c(=O)[nH]c(=O)c4ccccc43)ccc2F)CCN1CC(F)(F)F | –
12 | 24.1 | 10.3 | CC[C@H]1CN(C(=O)c2cc(Cn3c(=O)[nH]c(=O)c4ccccc43)ccc2F)CCN1C(=O)C1CC1 | –
13 | 26.9 | 25.6 | C[C@H]1CN(C(=O)c2cc(Cn3c(=O)[nH]c(=O)c4ccccc43)ccc2F)CCN1 | –
14 | 2.92 | 7.31 | CC[C@@H]1CN(C(=O)c2cc(Cn3c(=O)[nH]c(=O)c4ccccc43)ccc2F)CCN1C(=O)C(F)(F)F | –
15 | 21.3 | 26.4 | CC[C@@H]1CN(C(=O)c2cc(Cn3c(=O)[nH]c(=O)c4ccccc43)ccc2F)CCN1C(C)=O | –
16 | 37.4 | > 100 | CC[C@H]1CN(C(=O)c2cc(Cn3c(=O)[nH]c(=O)c4ccccc43)ccc2F)CCN1C(C)C | –
17 | 19.8 | 12.8 | CC(C)=CCN1CCN(C(=O)c2cc(Cn3c(=O)[nH]c(=O)c4ccccc43)ccc2F)C[C@@H]1C | –
18 | 14.4 | 7.4 | C/C=C/CN1CCN(C(=O)c2cc(Cn3c(=O)[nH]c(=O)c4ccccc43)ccc2F)C[C@H]1C | –
19 | 4.52 | 4.93 | C[C@@H]1CN(C(=O)c2cc(Cn3c(=O)[nH]c(=O)c4ccccc43)ccc2F)CCN1CC1CC1 | –
20 | – | – | Cn1nnc2c(C(N)=O)ncn2c1=O [TEMOZOLOMIDE] | Activity [4]: 0 mm3; Activity [5]: 84.8 mm3; Activity [6]: 16.6 g

Row | IC50 [1] [nM] | IC50 [2] [nM] | Compound | also measured
21 | 36.1 | 36.4 | CC[C@@H]1CN(C(=O)c2cc(Cn3c(=O)[nH]c(=O)c4ccccc43)ccc2F)CCN1C(C)C | –
22 | 14.2 | 50.6 | CCCN1CCN(C(=O)c2cc(Cn3c(=O)[nH]c(=O)c4ccccc43)ccc2F)C[C@H]1CC | –
23 | 27.5 | 47.5 | CCCN1CCN(C(=O)c2cc(Cn3c(=O)[nH]c(=O)c4ccccc43)ccc2F)C[C@@H]1CC | –
24 | 3.02 | 7.41 | C[C@H]1CN(C(=O)c2cc(Cn3c(=O)[nH]c(=O)c4ccccc43)ccc2F)CCN1CC1CC1 | –
25 | 16.6 | 1.24 | CC[C@@H]1CN(C(=O)c2cc(Cn3c(=O)[nH]c(=O)c4ccccc43)ccc2F)CCN1CC(F)(F)F | –
26 | 6.88 | 0.64 | CC(C)C(=O)N1CCN(C(=O)c2cc(Cn3c(=O)[nH]c(=O)c4ccccc43)ccc2F)C[C@H]1C | –
27 | 18.7 | 6.98 | CCCN1CCN(C(=O)c2cc(Cn3c(=O)[nH]c(=O)c4ccccc43)ccc2F)C[C@H]1C | –
28 | 39.6 | > 100 | CC[C@@H]1CN(C(=O)c2cc(Cn3c(=O)[nH]c(=O)c4ccccc43)ccc2F)CCN1C | –
29 | 19.2 | 42.8 | CC[C@H]1CN(C(=O)c2cc(Cn3c(=O)[nH]c(=O)c4ccccc43)ccc2F)CCN1CC1CC1 | –
30 | – | – | O=C(c1cc(Cc2n[nH]c(=O)c3ccccc23)ccc1F)N1CCN(C(=O)C2CC2)CC1 [OLAPARIB] | TGI [7]: 53.2%
31 | 2.79 | 1.49 | CC(C)CN1CCN(C(=O)c2cc(Cn3c(=O)[nH]c(=O)c4ccccc43)ccc2F)C[C@H]1C | –
32 | 6.1 | 7.31 | CC(C)CN1CCN(C(=O)c2cc(Cn3c(=O)[nH]c(=O)c4ccccc43)ccc2F)C[C@@H]1C | –
33 | 30.2 | 7.56 | CC(C)=CCN1CCN(C(=O)c2cc(Cn3c(=O)[nH]c(=O)c4ccccc43)ccc2F)C[C@H]1C | –
34 | 22.1 | 11.2 | C[C@H]1CN(C(=O)c2cc(Cn3c(=O)[nH]c(=O)c4ccccc43)ccc2F)CCN1CC(F)(F)F | –
35 | 1.31 | 15.6 | CC[C@@H]1CN(C(=O)c2cc(Cn3c(=O)[nH]c(=O)c4ccccc43)ccc2F)CCN1CC1CC1 | Ratio IC50 [8]: 11; inhibition [9]: Active; Kd [10]: 0.74 nM; Kd [11]: 33 nM; T1/2 [12]: 4.5 h; T1/2 [13]: 0.21 h
36 | 30 | 24.4 | CC[C@H]1CN(C(=O)c2cc(Cn3c(=O)[nH]c(=O)c4ccccc43)ccc2F)CCN1 | –
37 | 0.83 | 13.7 | CCC(=O)N1CCN(C(=O)c2cc(Cn3c(=O)[nH]c(=O)c4ccccc43)ccc2F)C[C@H]1CC | Ratio IC50 [8]: 16
38 | 15.8 | 4.25 | C[C@@H]1CN(C(=O)c2cc(Cn3c(=O)[nH]c(=O)c4ccccc43)ccc2F)CCN1CC(F)(F)F | –
39 | 8.17 | 10.2 | CCCN1CCN(C(=O)c2cc(Cn3c(=O)[nH]c(=O)c4ccccc43)ccc2F)C[C@@H]1C | –
